We go through 1 compound from paper PMC9605737, “Identification of 6ω-cyclohexyl-2-(phenylamino carbonylmethylthio)pyrimidin-4(3H)-ones targeting the ZIKV NS5 RNA dependent RNA polymerase” (Frontiers in Chemistry, 2022).

Data set [1] in a line: MTT cytotoxicity assay in Vero cells. The data set is classed as cell-based, African green monkey. The conditions noted are these: African green monkey, triplicate, >200 = highest soluble concentration not reaching 50% cytotoxicity. Here is the method:
MTT assay was used to detect the toxicity of the compound. Cells were seeded in 96-well plates and cultured overnight. Compounds with different concentrations were added and incubated for 96 h. Then, 20 μl of 5 mg/ml MTT (Sigma-Aldrich, United States) solution was added to each well and kept at 37°C for 4 h. Subsequently, 100 μl of 12% SDS-50% DMF (Sigma-Aldrich, United States) solution was added and incubated overnight at 37°C. After the crystalline formamidine was completely dissolved, the optical density (OD) value was measured using a microplate reader (BioTek, United States) with a wavelength of 570 nm and a reference wavelength of 630 nm.
The 50% effective concentration (EC50) and 50% cytotoxic concentration (CC50) of the compound were calculated according to the Reed and Muench method, inhibition rate of ZIKV RNA yield- [(1-drug treatment/positive control) × 100]. The data and graphs were processed using GraphPad Prism8 software, expressed as mean ± standard deviation (Mean ± SD), comparison between groups using ANOVA, p < 0.05 was considered statistically significant.
(In general: Tetrazolium dyes change colour on reduction, which living cells bring about.)

For data set [2], the target named is T1, ZIKV NS5 protein (Zika virus, UniProt A0A024B7W1).
T1 construct: endogenous in cells; host or cells: Vero cells infected with ZIKV
T1 sequence (A0A024B7W1 2521-3423): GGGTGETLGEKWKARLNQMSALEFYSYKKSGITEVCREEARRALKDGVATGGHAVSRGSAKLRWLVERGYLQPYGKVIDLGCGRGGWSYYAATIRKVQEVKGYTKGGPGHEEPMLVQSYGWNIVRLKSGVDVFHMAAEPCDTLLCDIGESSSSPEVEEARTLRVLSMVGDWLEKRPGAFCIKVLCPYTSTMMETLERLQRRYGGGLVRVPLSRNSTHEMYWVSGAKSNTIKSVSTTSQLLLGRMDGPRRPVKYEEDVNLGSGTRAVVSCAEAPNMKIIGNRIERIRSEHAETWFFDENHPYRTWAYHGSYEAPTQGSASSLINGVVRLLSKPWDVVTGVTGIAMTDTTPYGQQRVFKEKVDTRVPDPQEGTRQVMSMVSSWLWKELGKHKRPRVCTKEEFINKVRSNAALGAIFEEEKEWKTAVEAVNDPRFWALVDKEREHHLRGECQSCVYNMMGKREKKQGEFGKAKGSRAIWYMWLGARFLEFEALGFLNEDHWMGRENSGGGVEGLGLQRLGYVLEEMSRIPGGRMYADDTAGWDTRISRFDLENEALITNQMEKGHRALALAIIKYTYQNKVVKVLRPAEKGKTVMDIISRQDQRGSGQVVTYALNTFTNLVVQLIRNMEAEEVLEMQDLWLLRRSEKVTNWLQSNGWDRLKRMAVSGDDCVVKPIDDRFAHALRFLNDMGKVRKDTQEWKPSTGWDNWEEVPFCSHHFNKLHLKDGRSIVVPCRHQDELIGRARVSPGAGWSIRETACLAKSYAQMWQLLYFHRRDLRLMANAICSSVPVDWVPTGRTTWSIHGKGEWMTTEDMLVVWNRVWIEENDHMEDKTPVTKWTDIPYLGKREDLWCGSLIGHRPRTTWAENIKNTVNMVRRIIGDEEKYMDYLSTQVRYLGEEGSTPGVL
Kind of data set: Cell thermal shift assay (CETSA) with WB detection. The conditions noted are these: 50 μM, lysate of ZIKV-infected Vero cells, 60 min; DMSO control 42.3°C. The data set is classed as binding. Here is the method:
Cell thermal shift assay (CETSA) experiments are often used to detect the binding of intracellular drugs to target proteins. The assay was based on the principle of ligand-induced changes in protein thermal stability. The stability of the protein is evaluated by comparing the melting curves between the control group and the experimental group, thus assessing the interaction of the compound with the target protein.
Therefore, in order to further verify the interaction between 4w and ZIKV NS5, ZIKV-infected cell were treated with 4w (at 50 μM concentration), then total protein was incubation for 60 min at room temperature, and it was divided into nine equal parts. The same volume of DMSO was added as a control, and the treated protein was heated in a temperature gradient and then detected ZIKV NS5 protein by WB assay (Figure 5A).
Vero cells were inoculated in a 10 cm cell culture dish and cultured overnight, and after infection with ZIKV (MOI ≈2), maintenance medium was added to continue culturing for 3 days. Detergent-free protein lysis buffer (25 mM HEPES, 20 mM MgCl2, 2 mM DTT) was added, and cells were lysed by sonication. […] The supernatants were collected to prepare the samples, and the binding of 4w and ZIKV NS5 protein was analyzed by Western blotting ([Chen et al., 2020]; [Chen et al., 2021]).

In data set [3] the test system is ZIKV NS5 protein. Nature of the data set: Western blot of ZIKV NS5 protein in infected Vero cells. The data set is classed as cell-based. The conditions noted are these: 12.5 μM, 48 h. From the text: (§1) ZIKV E protein is one of the most important structural proteins of ZIKV, which plays an important role in the correct assembly of the virus and evasion of the host’s innate immunity ([Jaimipuk et al., 2022]). We have verified that 4w has a significant inhibitory effect on ZIKV-infected cell lines from different sources at the molecular level, but it is unknown whether it has the same antiviral effect at the protein level. Therefore, in order to explore the inhibitory effect of 4w on ZIKV protein level, we added serially diluted 4w to ZIKV-infected Vero cells for 48 h, collected the total protein for WB experiments, and then detected the effect of 4w on ZIKV E and NS5 protein. At the same time, the inhibitory effect of 4w on ZIKV E protein was verified again by immunofluorescence experiment.
Vero cells were infected with ZIKV (MOI = 1) at 37°C for 2 h. Next, the different amounts of 4w were added to continue culturing for 48 h to extract the total protein in the cells. The total protein was separated in sodium dodecyl sulfate polyacrylamide gel electrophoresis (SDS-PAGE). […] The antibody signal was recorded and quantified using the Tanon-5200 Multi Imaging System.
On the technique in general: In western blotting, separated proteins are transferred to a membrane and probed.

For the next data set, the system named is ZIKV E protein. Kind of data set: Immunofluorescence assay of ZIKV E protein in infected Vero cells. In kind it is cell-based, Zika virus. The conditions noted are these: 25 μM, 72 h.
From the text: as §1
Vero cells were seeded at 2 × 10^5 cells/ml in a 24-well plate with cell slides, and 500 μl/well was cultured overnight in a 37°C, 5% CO2 incubator. ZIKV (MOI = 1) was added to infect at 37°C for 2 h, and then discarded the virus. The cells were washed twice with PBS and then added to 500 μl of 4w diluted in concentration gradients. At the same time, virus-only as a positive control and a medium-only as negative control were set. […] Microscopic examinations were performed on a Leica DMI4000B Microsystem (Wetzlar, Germany), and an image was recorded using the system.

The test system of another data set is HCV NS5B RdRp. The conditions noted are these: ref Shen (2015); cited from earlier work.

Molecules are shown by their SMILES.

As usually defined, the CC50 is the concentration giving 50% cytotoxicity. A high value points to lower toxicity to the cells. As usually defined, the IC50 is the point on the concentration scale where inhibition reaches its midpoint. The compound `CCc1c(C2CCCCC2)nc(SCC(=O)Nc2cc(F)cc(F)c2)[nH]c1=O` [Compound 4w, 2-{[4-cyclohexyl-5-ethyl-6-oxo-1,6-dihydropyrimidin-2-yl]thio}-N-(3,5-difluorophenyl)acetamide] gave a CC50 at 96 h in data set [1] of over 200000 nM. The “apparent aggregation temperature (Tagg) of ZIKV NS5 protein” value at ZIKV NS5 protein [2] was 49.3 °C. Also, the “inhibition of ZIKV NS5 protein expression (WB)” value in the data set on ZIKV NS5 protein [3] is given as “significantly inhibit”. Also, the “inhibition of ZIKV E protein expression (immunofluorescence)” value in the data set on ZIKV E protein is listed as “completely inhibited”. In the data set on HCV NS5B RdRp, the IC50 was 102 nM.
